Assay results as given in patent publication US9067943B2, “[1,2,3]triazolo[4,5-D]pyrimidine derivatives” (priority 2011, dated 2015).
Read-outs that look alike come from different tables or passages of the source.

Assays:
human CB2 receptors = molecular target: T1, human CB2 receptors (Homo sapiens, UniProt P34972); experiment: cAMP assay; assay type: cell-based
T1 construct: expressed in transfected cells; host or cells: CHO cells
In short: (§1)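 CHO cells expressing human CB1 or CB2 were preincubated 30 min at 30 °C in Krebs Ringer bicarbonate buffer with 1 mM IBMX, then exposed to compounds for 30 min at 30 °C. cAMP was measured by time-resolved FRET against a cAMP standard curve, and EC50 values were derived.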

human CB1 receptors = molecular target: T2, human CB1 receptors (Homo sapiens, UniProt P21554); experiment: cAMP assay; assay type: cell-based
T2 construct: expressed in transfected cells; host or cells: CHO cells
T2 sequence (P21554 whole entry): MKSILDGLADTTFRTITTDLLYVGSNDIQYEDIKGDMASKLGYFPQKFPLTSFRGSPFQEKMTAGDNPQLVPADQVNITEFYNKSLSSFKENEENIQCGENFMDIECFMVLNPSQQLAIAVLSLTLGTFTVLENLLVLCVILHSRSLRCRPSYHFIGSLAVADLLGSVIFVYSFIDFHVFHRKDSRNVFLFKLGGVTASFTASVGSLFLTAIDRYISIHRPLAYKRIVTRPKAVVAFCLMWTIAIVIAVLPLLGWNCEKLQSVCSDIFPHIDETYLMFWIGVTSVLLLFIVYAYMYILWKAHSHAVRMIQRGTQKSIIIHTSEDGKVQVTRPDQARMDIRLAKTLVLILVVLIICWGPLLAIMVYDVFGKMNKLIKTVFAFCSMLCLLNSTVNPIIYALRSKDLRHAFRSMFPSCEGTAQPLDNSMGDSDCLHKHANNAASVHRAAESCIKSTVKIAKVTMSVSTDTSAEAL
In short: as §1

[1] = functional cAMP assay, CHO cells expressing human CB2, read-out: human CB2 EC50

T1 sequence (P34972 whole entry): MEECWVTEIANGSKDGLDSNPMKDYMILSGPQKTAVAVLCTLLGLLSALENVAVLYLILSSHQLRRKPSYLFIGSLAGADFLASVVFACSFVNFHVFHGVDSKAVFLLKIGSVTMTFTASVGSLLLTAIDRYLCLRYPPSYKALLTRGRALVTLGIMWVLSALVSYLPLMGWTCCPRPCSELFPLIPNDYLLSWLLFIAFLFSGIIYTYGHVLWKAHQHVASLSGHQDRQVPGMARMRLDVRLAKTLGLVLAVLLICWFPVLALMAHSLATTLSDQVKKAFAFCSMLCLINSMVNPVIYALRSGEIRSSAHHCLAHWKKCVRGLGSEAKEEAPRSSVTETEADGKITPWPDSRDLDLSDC

## Cc1nnc(Cn2nc3nc(C(C)(C)C)nc(N4CC[C@H](O)C4)c3n2)o1 [Example 87, (S)-1-[5-tert-Butyl-2-(5-methyl-[1,3,4]oxadiazol-2-ylmethyl)-2H-[1,2,3]triazolo[4,5-d]pyrimidin-7-yl]-pyrrolidin-3-ol]
Human CB2 receptors; [1]
  EC50: 258 nM
Human CB1 receptors
  EC50: > 10 µM

## CC(C)(C)c1nc(N2CCC(F)(F)C2)c2nn(Cc3cc(F)c(F)cc3Cl)nc2n1 [Example 19, 5-tert-Butyl-2-(2-chloro-4,5-difluoro-benzyl)-7-(3,3-difluoro-pyrrolidin-1-yl)-2H-[1,2,3]triazolo[4,5-d]pyrimidine]
Human CB2 receptors
  EC50: 2.2 nM
Human CB1 receptors
  EC50: > 10 µM

## CC(C)(C)c1nc(N2CC[C@H](O)[C@@H]2CO)c2nn(Cc3nnnn3C3CC3)nc2n1 [Example 97, (2S,3S)-1-[5-tert-Butyl-2-(1-cyclopropyl-1H-tetrazol-5-ylmethyl)-2H-[1,2,3]triazolo[4,5-d]pyrimidin-7-yl]-2-hydroxymethyl-pyrrolidin-3-ol]
Human CB2 receptors; [1]
  EC50: 144 nM
Human CB1 receptors
  EC50: > 10 µM

## CC(C)(C)c1nc(N2CCC(F)(F)C2)c2nn(Cc3cnccc3Cl)nc2n1 [Example 35, 5-tert-Butyl-2-(4-chloro-pyridin-3-ylmethyl)-7-(3,3-difluoro-pyrrolidin-1-yl)-2H-[1,2,3]triazolo[4,5-d]pyrimidine]
Human CB2 receptors
  EC50: 0.5 nM
Human CB1 receptors
  EC50: 0.642 µM

## CC(C)(C)c1nc(N2CC[C@H](O)C2)c2nn(Cc3nc(Cl)ccc3Cl)nc2n1 [Example 76, (S)-1-[5-tert-Butyl-2-(3,6-dichloro-pyridin-2-ylmethyl)-2H-[1,2,3]triazolo[4,5-d]pyrimidin-7-yl]-pyrrolidin-3-ol]
Human CB2 receptors
  EC50: 5.9 nM
Human CB1 receptors
  EC50: > 10 µM

## Cc1nonc1Cn1nc2nc(C(C)(C)C)nc(N3CC[C@](C)(O)C3)c2n1 [Example 131-a, (S)-1-[5-tert-Butyl-2-(4-methyl-furazan-3-ylmethyl)-2H-[1,2,3]triazolo[4,5-d]pyrimidin-7-yl]-3-methyl-pyrrolidin-3-ol]
Human CB2 receptors
  EC50: 10.2 nM
Human CB1 receptors
  EC50: > 10 µM

## CC(=O)N[C@H]1CCN(c2nc(O[C@@H](C)C(F)(F)F)nc3nn(Cc4ccccc4C(F)(F)F)nc23)C1 [Example 142, N—{(S)-1-[2-(2-Trifluoromethyl-benzyl)-5-((S)-2,2,2-trifluoro-1-methyl-ethoxy)-2H-[1,2,3]triazolo[4,5-d]pyrimidin-7-yl]-pyrrolidin-3-yl}-acetamide]
Human CB2 receptors; [1]
  EC50: 1110 nM
Human CB1 receptors
  EC50: > 10 µM

## C[C@H](Oc1nc(N2CCC(F)(F)C2)c2nn(Cc3ccccc3S(C)(=O)=O)nc2n1)C(F)(F)F [Example 116, 7-(3,3-Difluoro-pyrrolidin-1-yl)-2-(2-methanesulfonyl-benzyl)-5-((S)-2,2,2-trifluoro-1-methyl-ethoxy)-2H-[1,2,3]triazolo[4,5-d]pyrimidine]
Human CB2 receptors
  EC50: 23.1 nM
Human CB1 receptors
  EC50: > 10 µM

## Cn1nnnc1Cn1nc2nc(C(C)(C)C)nc(N3CC[C@H](O)C3)c2n1 [Example 88, (S)-1-[5-tert-Butyl-2-(1-methyl-1H-tetrazol-5-ylmethyl)-2H-[1,2,3]triazolo[4,5-d]pyrimidin-7-yl]-pyrrolidin-3-ol]
Human CB2 receptors
  EC50: 52.1 nM
Human CB1 receptors
  EC50: > 10 µM

## CC(C)(C)c1nc(N2CCC(F)(F)C2)c2nn(Cc3cccnc3Cl)nc2n1 [Example 34, 5-tert-Butyl-2-(2-chloro-pyridin-3-ylmethyl)-7-(3,3-difluoro-pyrrolidin-1-yl)-2H-[1,2,3]triazolo[4,5-d]pyrimidine]
Human CB2 receptors
  EC50: 0.5 nM
Human CB1 receptors
  EC50: > 10 µM

## CC(C)(C)c1nc(N2CCC(F)(F)C2)c2nn(Cc3ccc(Cl)cc3)nc2n1 [Example 8, 5-tert-Butyl-2-(4-chloro-benzyl)-7-(3,3-difluoro-pyrrolidin-1-yl)-2H-[1,2,3]triazolo[4,5-d]pyrimidine]
Human CB2 receptors
  EC50: 6.5 nM
Human CB1 receptors
  EC50: > 10 µM

## CC(C)(C)c1nc(N2CCC(F)(F)C2)c2nn(Cc3cc(Cl)ccc3Cl)nc2n1 [Example 11, 5-tert-Butyl-2-(2,5-dichloro-benzyl)-7-(3,3-difluoro-pyrrolidin-1-yl)-2H-[1,2,3]triazolo[4,5-d]pyrimidine]
Human CB2 receptors
  EC50: 1.2 nM
Human CB1 receptors
  EC50: > 10 µM

## Cc1noc(Cn2nc3nc(C(C)(C)C)nc(N4CC[C@](C)(O)C4)c3n2)n1 [Example 129-a, (S)-1-[5-tert-Butyl-2-(3-methyl-[1,2,4]oxadiazol-5-ylmethyl)-2H-[1,2,3]triazolo[4,5-d]pyrimidin-7-yl]-3-methyl-pyrrolidin-3-ol]
Human CB2 receptors; [1]
  EC50: 197 nM
Human CB1 receptors
  EC50: > 10 µM

## CC(C)(C)c1nc(N2CC[C@H](O)C2)c2nn(Cc3nccc(Cl)c3Cl)nc2n1 [Example 85, (S)-1-[5-tert-Butyl-2-(3,4-dichloro-pyridin-2-ylmethyl)-2H-[1,2,3]triazolo[4,5-d]pyrimidin-7-yl]-pyrrolidin-3-ol]
Human CB2 receptors
  EC50: 10.2 nM
Human CB1 receptors
  EC50: > 10 µM

## C[C@@H](c1ccccc1Cl)n1nc2nc(C(C)(C)C)nc(N3CCC(F)(F)C3)c2n1 [Example 29, 5-tert-Butyl-2-[(S)-1-(2-chloro-phenyl)-ethyl]-7-(3,3-difluoro-pyrrolidin-1-yl)-2H-[1,2,3]triazolo[4,5-d]pyrimidine]
Human CB2 receptors
  EC50: 0.8 nM
Human CB1 receptors
  EC50: 0.098 µM

## CCn1nc2nc(C(C)(C)C)nc(N3CCC(F)(F)C3)c2n1 [Example 3, 5-tert-Butyl-7-(3,3-difluoro-pyrrolidin-1-yl)-2-ethyl-2H-[1,2,3]triazolo[4,5-d]pyrimidine]
Human CB2 receptors
  EC50: 18.5 nM
Human CB1 receptors
  EC50: > 10 µM

## CC(=O)N[C@H]1CCN(c2nc(OCC(C)(C)C)nc3nn(Cc4ccccc4Cl)nc23)C1 [Example 134, N—{(S)-1-[2-(2-Chloro-benzyl)-5-(2,2-dimethyl-propoxy)-2H-[1,2,3]triazolo[4,5-d]pyrimidin-7-yl]-pyrrolidin-3-yl}-acetamide]
Human CB2 receptors; [1]
  EC50: 682 nM
Human CB1 receptors
  EC50: > 10 µM

## CC(=O)N[C@H]1CCN(c2nc(O[C@@H](C)C(F)(F)F)nc3nn(Cc4ccccc4S(C)(=O)=O)nc23)C1 [Example 143, N—{(S)-1-[2-(2-Methanesulfonyl-benzyl)-5-((S)-2,2,2-trifluoro-1-methyl-ethoxy)-2H-[1,2,3]triazolo[4,5-d]pyrimidin-7-yl]-pyrrolidin-3-yl}-acetamide]
Human CB2 receptors; [1]
  EC50: 1730 nM
Human CB1 receptors
  EC50: > 10 µM

## CC(C)(C)c1nc(N2CC[C@H](O)C2)c2nn(Cc3ccccc3S(C)(=O)=O)nc2n1 [Example 80, (S)-1-[5-tert-Butyl-2-(2-methanesulfonyl-benzyl)-2H-[1,2,3]triazolo[4,5-d]pyrimidin-7-yl]-pyrrolidin-3-ol]
Human CB2 receptors
  EC50: 10.3 nM
Human CB1 receptors
  EC50: > 10 µM

## CC(C)(C)c1nc(N2CCOCC2)c2nn(Cc3ccccc3Cl)nc2n1 [Example 1, 5-tert-Butyl-2-(2-chloro-benzyl)-7-morpholin-4-yl-2H-[1,2,3]triazolo[4,5d]pyrimidine]
Human CB2 receptors
  EC50: 3.3 nM
Human CB1 receptors
  EC50: > 10 µM

## CC(C)(C)c1nc(N2CCC(F)(F)C2)c2nn(Cc3c(F)ccc(Cl)c3Cl)nc2n1 [Example 48, 5-tert-Butyl-2-(2,3-dichloro-6-fluoro-benzyl)-7-(3,3-difluoro-pyrrolidin-1-yl)-2H-[1,2,3]triazolo[4,5-d]pyrimidine]
Human CB2 receptors
  EC50: 5.5 nM
Human CB1 receptors
  EC50: > 10 µM

## CC(C)(C)c1nc(N2CCC(F)(F)C2)c2nn(C3CS(=O)(=O)C3)nc2n1 [Example 62, 5-tert-Butyl-7-(3,3-difluoro-pyrrolidin-1-yl)-2-(1,1-dioxo-1λ6-thietan-3-yl)-2H-[1,2,3]triazolo[4,5-d]pyrimidine]
Human CB2 receptors
  EC50: 5.8 nM
Human CB1 receptors
  EC50: > 10 µM
